Test results: ChEMBL document CHEMBL1201862, “PubChem BioAssay data set” (2004)
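Protocol summary: plate cells (96-well), add compound at 5 concentrations, incubate 48 h, interpolate endpoints linearly. GI50 = concentration required for 50% inhibition of growth.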 Activity calls are given as the source filed them. Cut-off read from the data, not from the text of the source: active = GI50 up to about 1.1 µM and inactive = higher.

How the values were obtained:
Test in all cases: NCI-60 cell line screen, 48 h
DMS-273 = system: DMS-273
M19-MEL = system: M19-MEL
SNB-78 = system: SNB-78
XF498 = system: XF498
DMS-114 = system: DMS-114
LXFL 529 = system: LXFL 529
DLD-1 = system: DLD-1
HOP-18 = system: HOP-18
RXF 631 = system: RXF 631

Measured: GI50

COc1ccc2c([nH]c3cc(O)c(C)cc32)c1C=O
inactive: DMS-273 > 25 µM | M19-MEL > 25 µM | SNB-78 > 25 µM | XF498 > 25 µM | DMS-114 > 25 µM | LXFL 529 > 25 µM | DLD-1 > 25 µM

O=c1[nH]c(=O)n(C2CC(O)C(CS)O2)cc1F (stereo not drawn)
inactive: HOP-18 > 100 µM | M19-MEL 77.6 µM | SNB-78 > 100 µM | XF498 > 100 µM | DMS-114 > 100 µM | LXFL 529 > 10 µM | DLD-1 > 100 µM

FC(F)(F)c1cccc2ns[s+]c12
inactive: HOP-18 > 100 µM | DMS-273 > 100 µM | M19-MEL > 100 µM | SNB-78 > 100 µM | XF498 > 100 µM | RXF 631 > 100 µM | LXFL 529 > 100 µM | DLD-1 35 µM

O=C1CCC(Cl)=CC2CCCN12 (stereo not drawn)
inactive: M19-MEL > 100 µM | SNB-78 > 100 µM | DMS-114 > 100 µM | LXFL 529 > 100 µM | DLD-1 > 100 µM

CCc1cccc(C(C)CC)c1NC(=O)CC1C(=O)Nc2ccccc2S1(=O)=O (stereo not drawn)
inactive: DMS-273 13.6 µM | M19-MEL 26.9 µM | SNB-78 14.2 µM | XF498 > 100 µM | DMS-114 13.5 µM | LXFL 529 11.2 µM | DLD-1 13.6 µM

COc1ccc(-c2c(C3=NCCCN3)nnn2-c2ccccc2)cc1
inactive: HOP-18 > 100 µM | DMS-273 > 100 µM | M19-MEL > 100 µM | SNB-78 > 100 µM | XF498 > 100 µM | DMS-114 > 100 µM | LXFL 529 > 100 µM | DLD-1 > 100 µM

CCC1(O)CC(c2ccccc2)N(C)C(c2ccccc2)C1 (stereo not drawn)
inactive: DMS-273 > 100 µM | M19-MEL > 100 µM | SNB-78 > 100 µM | DMS-114 > 100 µM | RXF 631 > 100 µM | LXFL 529 > 100 µM | DLD-1 > 100 µM

CC(=O)OCC1OC(N=[N+]=[N-])C(OC(C)=O)C(OC(C)=O)C1OC1OC(COC(C)=O)C(OC(C)=O)C(OC(C)=O)C1OC(C)=O (stereo not drawn)
inactive: DMS-273 > 100 µM | M19-MEL > 100 µM | SNB-78 71.6 µM | XF498 > 100 µM | DMS-114 > 100 µM | RXF 631 > 100 µM | LXFL 529 > 100 µM

C=CCNC(=S)OCCCCCCCCCC
inactive: HOP-18 22.3 µM | DMS-273 19.9 µM | M19-MEL 17.6 µM | SNB-78 19.5 µM | XF498 16 µM | DMS-114 17 µM | LXFL 529 14.9 µM | DLD-1 16.4 µM

CC1C=CC(C(N)C(=O)O)O1 (stereo not drawn)
inactive: DMS-273 > 100 µM | M19-MEL > 100 µM | SNB-78 > 100 µM | XF498 > 100 µM | DMS-114 > 100 µM | LXFL 529 > 100 µM | DLD-1 > 100 µM

CCOc1ccc(OP2(=O)NC(=O)C=C(C)N2)cc1 (stereo not drawn)
inactive: HOP-18 > 100 µM | DMS-273 > 100 µM | M19-MEL > 100 µM | SNB-78 > 100 µM | XF498 > 100 µM | DMS-114 > 100 µM | RXF 631 > 100 µM | LXFL 529 > 100 µM | DLD-1 > 100 µM

C[Si](C)(C)/C=C/CN1C(=O)CCC1O (stereo not drawn)
inactive: HOP-18 > 100 µM | DMS-273 > 100 µM | M19-MEL > 100 µM | SNB-78 > 100 µM | XF498 > 100 µM | DMS-114 > 100 µM | LXFL 529 > 100 µM | DLD-1 > 100 µM

CCSc1nc(COC(=O)NC)c(COC(=O)NC)n1C
inactive: HOP-18 > 100 µM | DMS-273 > 94.4 µM | M19-MEL > 63.5 µM | SNB-78 > 70.1 µM | DMS-114 46.6 µM | RXF 631 > 100 µM | LXFL 529 > 37.2 µM | DLD-1 > 92.3 µM

CN1CCc2c1nc(-c1ccccc1)c1c2N(C)CC1
inactive: HOP-18 3.82 µM | DMS-273 53.6 µM | M19-MEL > 100 µM | SNB-78 > 100 µM | LXFL 529 52.2 µM | DLD-1 45.3 µM

CCCCCCCCCCCCCCCCCCCCCCC(=O)N[C@H]1CCc2cc(OC)c(OC)c(OC)c2-c2ccc(SC)c(=O)cc21
inactive: DMS-273 27.9 µM | M19-MEL 50 µM | SNB-78 41.9 µM | XF498 20.8 µM | RXF 631 14.1 µM | LXFL 529 41.9 µM

CCCCNC1=C(C(=O)OCC)/C(=N/NC(=O)c2ccccc2O)CO1
inactive: HOP-18 62.2 µM | M19-MEL > 100 µM | SNB-78 6.93 µM | XF498 > 100 µM | DMS-114 36.7 µM | LXFL 529 38 µM | DLD-1 18.2 µM

O=C(CC1C(=O)Nc2ccccc2[S+]1[O-])Nc1cc(Cl)ccc1Cl (stereo not drawn)
inactive: DMS-273 > 100 µM | M19-MEL > 100 µM | SNB-78 > 100 µM | XF498 > 100 µM | DMS-114 > 100 µM | RXF 631 > 100 µM | LXFL 529 > 100 µM | DLD-1 > 100 µM
